Reference: US10183953B2, “Substituted 2-azabicycles and their use as orexin receptor modulators” (Janssen Pharmaceutica NV, priority 2013, dated 2019)

Legend:
[1] = target: rat orexin 1 receptor (Rattus norvegicus, UniProt P56718); test: Rat orexin 1 receptor radioligand binding (competitive, HEK293 membranes); details: rat OX1 receptor binding; averages from between 2-20 runs; read-out: rOX1 Ki
Experimental: (§1) The in vitro affinity of the compounds of the invention for the rat/human orexin 1 and human orexin 2 receptors was determined by competitive radioligand binding using [^3H]
(§2) Data are analyzed using pc-Sandy macro and graphed on Graphpad Prism 5. For analysis, each concentration point is averaged from triplicate values and the averaged values are plotted on Graphpad Prism. The IC50 was determined by applying the following equation (GraphPad Prism 5.0, SanDiego) for one site competition where X=log (concentration) and Y=specific binding. […] Graphpad Prism calculates Ki value from IC50 and the pre-determined Kd values for [^3H]-(1-(5-(2-fluoro-phenyl)-2-methyl-thiazol-4-yl)-1-((S)-2-(5-phenyl-(1,3,4)oxadiazol-2-ylmethyl)-pyrrolidin-1-yl)-methanone) and [3H]-EMPA. […]
(§3) After centrifugation (2K×G, 5 min at 4° C.), the supernatant was aspirated and the pellets frozen and stored at −80° C. […] Total and nonspecific binding was determined in the absence and presence of 10 μM almorexant. […] Plates were dried in 55° C. oven for 60 min, scintillation fluid was added, and the radioactivity was counted on a Topcount (Packard).

[2] = target: human orexin 1 receptor (Homo sapiens (Human), UniProt O43613); test: Human orexin 1 receptor radioligand binding (competitive, CHO membranes); details: human OX1 receptor binding; averages from between 2-20 runs; read-out: hOX1 Ki
Chain of human orexin 1 receptor (O43613 whole entry): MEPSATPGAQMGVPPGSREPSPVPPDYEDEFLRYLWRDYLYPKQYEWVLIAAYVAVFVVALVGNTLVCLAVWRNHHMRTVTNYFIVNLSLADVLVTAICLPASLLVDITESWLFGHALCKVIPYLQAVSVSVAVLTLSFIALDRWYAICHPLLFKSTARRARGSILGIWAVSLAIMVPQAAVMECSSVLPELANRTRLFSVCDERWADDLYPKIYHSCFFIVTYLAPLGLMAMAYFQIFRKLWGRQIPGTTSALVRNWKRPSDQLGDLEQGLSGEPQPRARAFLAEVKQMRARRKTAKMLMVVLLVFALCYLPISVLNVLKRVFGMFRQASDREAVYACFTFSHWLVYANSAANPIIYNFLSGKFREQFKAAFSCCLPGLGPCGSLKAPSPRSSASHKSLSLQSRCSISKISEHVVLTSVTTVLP
Experimental: as §1, §2, §3

[3] = target: human orexin 2 receptor (Homo sapiens (Human), UniProt O43614); test: Human orexin 2 receptor radioligand binding ([3H]-EMPA, HEK293 membranes); details: human OX2 receptor binding; averages from between 2-20 runs; read-out: hOX2 Ki
Chain of human orexin 2 receptor (O43614 whole entry): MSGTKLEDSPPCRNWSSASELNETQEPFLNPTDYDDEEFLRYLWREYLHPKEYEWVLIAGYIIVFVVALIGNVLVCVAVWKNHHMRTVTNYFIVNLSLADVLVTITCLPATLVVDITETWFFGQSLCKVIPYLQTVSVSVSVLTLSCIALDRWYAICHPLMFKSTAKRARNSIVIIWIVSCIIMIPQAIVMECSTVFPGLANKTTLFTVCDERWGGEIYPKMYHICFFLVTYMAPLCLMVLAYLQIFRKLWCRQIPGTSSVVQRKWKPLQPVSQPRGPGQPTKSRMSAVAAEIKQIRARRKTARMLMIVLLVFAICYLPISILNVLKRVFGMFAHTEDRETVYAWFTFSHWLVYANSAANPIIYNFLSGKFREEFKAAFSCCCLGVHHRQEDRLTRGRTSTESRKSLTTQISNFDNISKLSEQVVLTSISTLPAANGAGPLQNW
Experimental: as §1, §2
HEK293 stably expressing human orexin 2 receptor (Genebank accession number NM_001526) were grown to confluency in DMEM (Hyclone, cat #SH30022), 10% FBS, 1×Pen/Strep, 1× NaPyruvate, 10 mM HEPES, 600 ug/ml G418 media on 150 cm^2 tissue culture plates, washed with 5 mM EDTA in PBS (HyClone Dulbecco's Phosphate Buffered Saline 1× with Calcium and Magnesium, Cat #SH30264.01, hereafter referred to simply as PBS) and scraped into 50 ml tubes. […] Total and nonspecific binding was determined in the absence and presence of 10 μM almorexant. […]

**Q.** What does the source list for `O=C(c1cccc(F)c1-c1ncccn1)N1C[C@@H]2CC[C@H]1[C@H](Nc1cnc(C(F)(F)F)cn1)C2` [Example 80, (3-fluoro-2-(pyrimidin-2-yl)phenyl)((1S,4R,6R)-6-((5-(trifluoromethyl)pyrazin-2-yl)amino)-2-azabicyclo[2.2.2]octan-2-yl)methanone]?
**A.** Ki [1]: 9 nM; Ki [2]: 7 nM; Ki [3]: 456 nM
